Consider 27 compounds from patent US20250066369A1, “BICYCLIC PHTHALAZIN-1(2H)-ONE DERIVATIVES AND RELATED USES” (NodThera Limited, priority 2022, published 2025).

SMILES strings stand for the structures. Where a name gives a salt, the structure may show the parent alone. Bounds are passed on as bounds.

The subject of this assay is IL-1β release upon NLRP3 activation in peripheral blood mononuclear cells (PBMC). Briefly: PBMC IC50 determination assay: inhibition of IL-1β release upon NLRP3 activation. The class given is cell-based. As to conditions: PBMC primed with LPS 3 h, compound 30 min, stimulated with ATP (5 mM) or nigericin (10 μM) 1 h, IL-1β by ELISA (Protocol A) or HTRF (Protocol B). The procedure: PBMC IC50 determination assay. The compounds of the present disclosure were tested for their inhibitory activity against IL-1β release upon NLRP3 activation in peripheral blood mononuclear cells (PBMC).
Protocol A. PBMC were isolated from buffy coats by density gradient centrifugation on Histopaque-1077 (Sigma, cat no. 10771). Isolated cells were seeded into the wells of a 96-well plate and incubated for 3 h with lipopolysaccharide (LPS). Following medium exchange, the compounds of the present disclosure were added (a single compound per well) and the cells were incubated for 30 min. Next, the cells were stimulated either with ATP (5 mM) or nigericin (10 μM) for 1 h and the cell culture media from the wells were collected for further analysis.
The release of IL-1β into the media was determined by a quantitative detection of IL-1β in the media using an IL-1β enzyme-linked immunosorbent assay (ELISA) Ready-SET-Go!, eBioscience cat. No. 88-7261-88. Briefly, in a first step, high affinity binding plates (Corning, Costar 9018 or NUNC Maxisorp Cat No. 44-2404) were coated overnight at 4° C. with specific capture antibody included in the kit (anti-human IL-1β ref. 14-7018-68). Subsequently, plates were blocked with blocking buffer for 1 h at room temperature (rt) and after washing with a buffer (PBS with 0.05% Tween-20) incubated with protein standard and culture media. After 2 h of incubation at rt, plates were washed and incubated with biotinylated detection antibody included in the kit (anti-human IL-1β Biotin ref 33-7110-68) for 1 h at rt. Plates were washed and incubated with HRP-streptavidin for 30 min at rt and washed again. The signal was developed after addition of 3,3′,5,5′-tetramethylbenzidine-peroxidase (TMB) until colour appeared and the reaction was stopped by 2 M H2SO4. A microplate spectrophotometer (BioTek) was used to detect signals with 450 nm. The detection range of IL-1β ELISA was […].
Protocol B. PBMC were isolated from buffy coats by density gradient centrifugation on Histopaque-1077 (Sigma, cat no. 10771). Isolated cells were seeded into the wells (280,000 cells/well) of a 96-well plate and incubated for 3 h with lipopolysaccharide (LPS, 1 μg/mL diluted 1000× from a 1 mg/mL stock solution). The compounds of the present disclosure were added (a single compound per well) and the cells were incubated for 30 min. Next, the cells were stimulated with ATP (5 mM final concentration diluted 20× from a 100 mM stock solution) for 1 h and the cell culture media from the wells were collected for further analysis.
The release of IL-1β into the media was determined by quantitative detection of IL-1β in the media using HTRF®, CisBio cat. No. 62HIL1BPEH. Briefly, cell culture supernatant were dispensed directly into the assay plate containing antibodies labelled with the HTRF® donor and acceptor. A microplate spectrophotometer (BMG) was used to detect signals at 655 nm and 620 nm. The detection range of IL-1β HTRF® was 39-6500 μg/mL.

For `CCn1cc2c(=O)n(CC(=O)N[C@H]3CCCN4CCC[C@@H]34)nc(C(C)C)c2n1` (stereo in doubt) [Compound 7, N-[Cis-1,2,3,5,6,7,8,8a-octahydroindolizin-8-yl]-2-(2-ethyl-7-isopropyl-4-oxo-pyrazolo[3,4-d]pyridazin-5-yl) acetamide hydrochloride], for the setting “PBMC”, the IC50 lay in the range of 1000 to 3000 nM. `CC(C)c1nn(CC(=O)N[C@@H]2CCCN(C3CC3)C2)c(=O)c2c1cnn2C` [Compound 1, N-[(3R)-1-Cyclopropyl-3-piperidyl]-2-(4-isopropyl-1-methyl-7-oxo-pyrazolo[3,4-d]pyridazin-6-yl)acetamide] yielded a concentration for half-maximal inhibition (IC50) (PBMC) of 3000 to 10000 nM.

For the compound `CC(C)c1nn(CC(=O)N[C@@H]2CCCN(C3CC3)C2)c(=O)c2cnn(C)c12` [Compound 2, N-[(3R)-1-Cyclopropyl-3-piperidyl]-2-(7-isopropyl-1-methyl-4-oxo-pyrazolo[3,4-d]pyridazin-5-yl)acetamide], the 50% inhibitory concentration (IC50) (PBMC) lay within 1000 to 3000 nM.

For the compound `CC(C)c1nn(CC(=O)N[C@@H]2CCCN(C3CC3)C2)c(=O)c2cn(C)nc12` [Compound 3, N-[(3R)-1-Cyclopropyl-3-piperidyl]-2-(7-isopropyl-2-methyl-4-oxo-pyrazolo[3,4-d]pyridazin-5-yl)acetamide], the concentration for half-maximal inhibition (IC50) (PBMC) was in the range of 3000 to 10000 nM. Same read-out and setting: the value for `CCn1cc2c(=O)n(CC(=O)Nc3ncncc3F)nc(C(C)C)c2n1` [Compound 5, 2-(2-Ethyl-7-isopropyl-4-oxo-pyrazolo[3,4-d]pyridazin-5-yl)-N-(5-fluoropyrimidin-4-yl) acetamide] was 1000 to 3000 nM. Still for that read-out and setting: to `CCn1cc2c(=O)n(CC(=O)N[C@@H]3CCCN(C)C3)nc(C(C)C)c2n1` [Compound 6, 2-(2-Ethyl-7-isopropyl-4-oxo-pyrazolo[3,4-d]pyridazin-5-yl)-N-[(3R)-1-methyl-3-piperidyl]acetamide] belongs 10000 to 50000 nM; to `CCn1cc2c(=O)n(CC(=O)Nc3ncc(F)cn3)nc(C(C)C)c2n1` [Compound 8, 2-(2-Ethyl-7-isopropyl-4-oxo-pyrazolo[3,4-d]pyridazin-5-yl)-N-(5-fluoropyrimidin-2-yl)acetamide], 100 to 1000 nM. Regarding `CC(C)c1nn(CC(=O)N[C@@H]2CCCN(C3CC3)C2)c(=O)c2nn(C)cc12` [Compound 9, N-[(3R)-1-Cyclopropyl-3-piperidyl]-2-(4-isopropyl-2-methyl-7-oxo-pyrazolo[3,4-d]pyridazin-6-yl)acetamide], the half-maximal inhibitory concentration (IC50) (PBMC) lay in the range of 10000 to 50000 nM. `CC(C)c1nn(CC(=O)N[C@@H]2CCCN(C3CC3)C2)c(=O)c2cc(Cl)sc12` [Compound 10, 2-(2-Chloro-7-isopropyl-4-oxo-thieno [2,3-d]pyridazin-5-yl)-N-[(3R)-1-cyclopropyl-3-piperidyl]acetamide]: the 50% inhibitory concentration (IC50) (PBMC) was in the range of 1000 to 3000 nM. On the same count and under the same terms, the value for `CC(C)c1nn(CC(=O)N[C@@H]2CCCN(C3CC3)C2)c(=O)c2sc(Cl)cc12` [Compound 11, 2-(2-Chloro-4-isopropyl-7-oxo-thieno[2,3-d]pyridazin-6-yl)-N-[(3R)-1-cyclopropyl-3-piperidyl]acetamide] was 1000 to 3000 nM; that for `CCc1cc2c(=O)n(CC(=O)Nc3ncc(F)cn3)nc(C(C)C)c2s1` [Compound 12, 2-(2-Ethyl-7-isopropyl-4-oxo-thieno[2,3-d]pyridazin-5-yl)-N-(5-fluoropyrimidin-2-yl)acetamide] was 100 to 1000 nM; that for `C=C(C)c1nn(CC(=O)N[C@@H]2CCCN(C3CC3)C2)c(=O)c2ncn(C)c12` [Compound 13, N-[(3R)-1-Cyclopropyl-3-piperidyl]-2-(7-isopropenyl-1-methyl-4-oxo-imidazo[4,5-d]pyridazin-5-yl)acetamide] was 10000 to 50000 nM. Still for that read-out and setting: the value for `CC(C)c1nn(CC(=O)N[C@@H]2CCCN(C3CC3)C2)c(=O)c2ncn(C)c12` [Compound 14, N-[(3R)-1-Cyclopropyl-3-piperidyl]-2-(7-isopropyl-1-methyl-4-oxo-imidazo[4,5-d]pyridazin-5-yl)acetamide] was 10000 to 50000 nM; that for `CC(C)c1nn(CC(=O)Nc2ncc(F)cn2)c(=O)c2cn(C(C)C)nc12` [Compound 15, 2-(2,7-Diisopropyl-4-oxo-pyrazolo[3,4-d]pyridazin-5-yl)-N-(5-fluoropyrimidin-2-yl)acetamide] was 100 to 1000 nM.

On to `CC(C)c1nn(CC(=O)Nc2ncc(F)cn2)c(=O)c2cn(C3CC3)nc12` [Compound 17, 2-(2-Cyclopropyl-7-isopropyl-4-oxo-pyrazolo[3,4-d]pyridazin-5-yl)-N-(5-fluoropyrimidin-2-yl) acetamide], for which the half-maximal inhibitory concentration (IC50) lay within 100 to 1000 nM.

As to `CC(C)c1nn(CC(=O)NC2CC3(COC3)C2)c(=O)c2cnc(C3CC3)cc12` [Compound 18, 2-(7-Cyclopropyl-1-isopropyl-4-oxo-pyrido[3,4-d]pyridazin-3-yl)-N-(2-oxaspiro[3.3]heptan-6-yl)acetamide], the IC50 (PBMC) fell in the range of 10000 to 50000 nM. For the compound `Cc1nc(NC(=O)Cn2nc(C(C)C)c3cc(C4CC4)ncc3c2=O)ns1` [Compound 19, 2-(7-Cyclopropyl-1-isopropyl-4-oxo-pyrido[3,4-d]pyridazin-3-yl)-N-(5-methyl-1,2,4-thiadiazol-3-yl)acetamide], the IC50 (PBMC) was 10000 to 50000 nM.

Compound `CCc1nn(CC(=O)Nc2ncc(F)cn2)c(=O)c2cn(CC)nc12` [Compound 20, 2-(2,7-Diethyl-4-oxo-pyrazolo[3,4-d]pyridazin-5-yl)-N-(5-fluoropyrimidin-2-yl)acetamide] yielded an IC50 (PBMC) of 10000 to 50000 nM. Still for that read-out and setting: to `CCc1nn(CC(=O)Nc2ncccn2)c(=O)c2cn(CC)nc12` [Compound 21, 2-(2,7-Diethyl-4-oxo-pyrazolo[3,4-d]pyridazin-5-yl)-N-pyrimidin-2-yl-acetamide] belongs 10000 to 50000 nM.

For the compound `CCc1nn(CC(=O)NC2CC3(COC3)C2)c(=O)c2cn(CC)nc12` [Compound 22, 2-(2,7-Diethyl-4-oxo-pyrazolo[3,4-d]pyridazin-5-yl)-N-(2-oxaspiro[3.3]heptan-6-yl)acetamide], for the setting “PBMC”, the half-maximal inhibitory concentration (IC50) was in the range of 10000 to 50000 nM. `CCc1cc2c(=O)n(CC(=O)Nc3ncc(F)cn3)nc(C(C)C)c2o1` [Compound 23, 2-(2-Ethyl-7-isopropyl-4-oxo-furo [2,3-d]pyridazin-5-yl)-N-(5-fluoropyrimidin-2-yl) acetamide]: the IC50 (PBMC) fell in the range of 100 to 1000 nM. For the setting “PBMC”, `CCc1cc2c(C(C)C)nn(CC(=O)Nc3ncc(F)cn3)c(=O)c2s1` [Compound 24, 2-(2-Ethyl-4-isopropyl-7-oxo-thieno[2,3-d]pyridazin-6-yl)-N-(5-fluoropyrimidin-2-yl) acetamide] yielded a half-maximal inhibitory concentration (IC50) of at most 100 nM. On to `CC(C)c1nn(CC(=O)NC2CC3(COC3)C2)c(=O)c2ccc(C3CC3)nc12` [Compound 25, 2-(2-Cyclopropyl-8-isopropyl-5-oxo-pyrido[2,3-d]pyridazin-6-yl)-N-(2-oxaspiro[3.3]heptan-6-yl)acetamide], for which, for the setting “PBMC”, the IC50 was 1000 to 3000 nM. As for `Cc1nc(NC(=O)Cn2nc(C(C)C)c3nc(C4CC4)ccc3c2=O)ns1` [Compound 26, 2-(2-Cyclopropyl-8-isopropyl-5-oxo-pyrido[2,3-d]pyridazin-6-yl)-N-(5-methyl-1,2,4-thiadiazol-3-yl)acetamide], the half-inhibitory concentration (IC50) (PBMC) was 100 to 1000 nM. Turning to `CC(C)c1nn(CC(=O)Nc2ncccn2)c(=O)c2ccc(C3CC3)nc12` [Compound 27, 2-(2-Cyclopropyl-8-isopropyl-5-oxo-pyrido [2,3-d]pyridazin-6-yl)-N-pyrimidin-2-yl-acetamide], the IC50 (PBMC) is 100 to 1000 nM. Still for that read-out and setting: to `CC(C)c1nn(CC(=O)Nc2ncc(F)cn2)c(=O)c2ccc(C3CC3)nc12` [Compound 28, 2-(2-Cyclopropyl-8-isopropyl-5-oxo-pyrido[2,3-d]pyridazin-6-yl)-N-(5-fluoropyrimidin-2-yl)acetamide] belongs 100 to 1000 nM. For the compound `CC(C)c1nn(CC(=O)N[C@@H]2CCCN(C3CCC3)C2)c(=O)c2sc(Br)cc12` [Compound 29, 2-(2-Bromo-4-isopropyl-7-oxo-thieno[2,3-d]pyridazin-6-yl)-N-[(3R)-1-cyclobutyl-3-piperidyl]acetamide], the 50% inhibitory concentration (IC50) (PBMC) lay in the range of 100 to 1000 nM.
